Measurements as given in US6306613A, “Modulators of leaderless protein export and methods for identifying and using the same” (Ciblex Corporation, priority 1999, dated 2001).

What was measured:
[1] = tested on: export of 18 kD FGF-2 from COS cells; conditions: 25 μg/ml in chase medium; cited from earlier work
[2] = tested on: secretion of hCG-α from COS cells; conditions: cited from earlier work
[3] = tested on: export of 18 kD FGF-2 from COS cells; assay: FGF-2 export from transfected COS cells, pulse-chase and immunoprecipitation; type: cell-based; conditions: for inhibition of export of FGF-2 / IC50: COS cells; for inhibition of export of FGF-2: 10 nM to 1 mM in chase; for IC50: FGF-2 export, modulator in chase medium, read-out: concentration that inhibits 50% of leaderless protein export
Protocol: For an immunoprecipitation assay after transfection, the COS cells are metabolically pulse-labeled for 15 minutes with 100 μCi of ^35 S-methionine and ^35 S-cysteine (Trans ^35 S-label, ICN Biomedicals, Irvine, Calif.) in 1 ml of methionine and cysteine free DMEM. Following labeling, the cell monolayers are washed once with DMEM supplemented with excess (10 mM) unlabeled methionine and cysteine for 1-2 minutes. Cells are then cultured in 2 ml of this medium for the indicated lengths of time and the cell supernatants are immunoprecipitated for the presence of leaderless protein. For the indicated cultures, chase medium is supplemented with modulator at the indicated concentrations.
COS cells are cultured in Dulbecco's Modified Eagle Medium (DMEM, University of California San Diego Core Facility) supplemented with 10% fetal bovine serum (Gemini Bioproducts, Inc.), 2 mM L-glutamine, 1 mM sodium pyruvate, 0.1 mM non-essential amino acids, 100 units/ml penicillin, and 100 units/ml streptomycin. An SV-40-based expression vector containing the wild type (human) cDNA encoding multiple FGF-2 isoforms (24, 23, 22 and 18-kD) has been described previously (Florkiewiczand Sommer, supra). Approximately 3×10^5 COS cells in a 60 mm tissue culture dish are transfected with 10 μg of CsCl-purified plasmid DNA mixed with 1.0 ml of transfection buffer (140 mM NaCl, 3 mM KCl, 1 mM CaC'2, 0.5 mM MgCl2, 0.9 mM Na2 HPO4, 25 mM Tris pH 7.4; all from Sigma Chemical Company, Stl. Louis, Mo.). Under these co-transfection conditions using 2 μg of p18dx plus 10 μg pMAMneo, greater than 70% of transfected cells express both proteins, as determined by immunofluorescence microscopy. The ratio of plasmid DNA may be varied with an insignificant change in results. Forty to 48 hours post-DNA transfection COS cells are metabolically pulse-labeled for 15 minutes with 100 μCi of ^35 S-methionine and ^35 S-cysteine (Trans^35 S-label, ICN Biomedicals, Inc.) in 1.0 ml of methionine-and cysteine-free DMEM. After pulse-labeling, the cell monolayers are washed once with DMEM supplemented with excess (10 mM) unlabeled methionine and cysteine (Sigma Chemical Company) and then cultured in 1.0 ml of the same medium (chase) for the indicated lengths of time. Cultures treated with brefeldin A include 15 μg/ml of brefeldin A in the chase medium. Chase medium is also supplemented with 25 μg/ml heparin (Sigma Chemical Company). Although heparin is not necessary to qualitatively detect FGF-2 export, it is necessary in order to quantitatively detect the export of FGF-2 in this assay.
Cell and medium fractions are prepared for immunoprecipitation essentially as described previously (Florkiewicz et al., 1991) except that 400 μl of lysis buffer without NaCl (1% NP-40, 0.5% deoxycholate, 20 mM Tris pH 7.5, 5 mM EDTA, 2 mM EGTA, 0.01 mM phenylinethylsufonyl fluoride, 10 ng/ml aprotiniul, 10 ng/ml leupeptin, and 10 ng/ml pepstatin) is added to the medium fraction clarified by microfuge centrifugation for 15 minutes at 4° C. before adding immune serum. Both cell and medium fractions are incubated with a 1:200 dilution of guinea pig anti-FGF-2 immune serum (prepared in our laboratory) at 21° C. for 40 minutes and then GammaBind G Sepharose® (Pharmacia LKB Biotechnology) is added for an additional 30 minute incubation. […]

[4] = tested on: secretion of hCG-α from COS cells; assay: hCG-α secretion from transfected COS cells (leader sequence control); type: cell-based
Protocol: An expression vector encoding hCG-cc (Guan et al., J. Biol. Chem. 263:5306-5313, 1988), which has a signal sequence, is used as a control to monitor proteins trafficked through the ER/Golgi.
COS cells are co-transfected as described above with plasmids expressing FGF-2, hCG-α, or neomycin phosphotransferase. Metabolic labeling is performed as described above, except that during the chase period, modulator that inhibits export is added at 10 nM to 1 mM in log increments. At the end of the chase, cells and cell media are harvested and processed for immune precipitations as described above.

[5] = tested on: FGF-2 export from Na+/K+ ATPase α1 co-transfected COS cells; assay: FGF-2 export from COS cells co-transfected with rat Na+/K+ ATPase α1; type: cell-based; conditions: twenty-four hours post labeling
[6] = tested on: IL-1α export from COS cells; assay: IL-1α export from transfected COS cells; type: cell-based; conditions: 5 mM
Text: A vector containing a leaderless protein gene. IL-1α, is transfected into COS cells. Cells are metabolically labeled and protein precipitated with anti-IL-1α antibody. […] In contrast to the export of FGF-2, the rate of IL-1 export is slower, having a T1/2 of greater than 24 hrs. […] In addition, IL-1α can be immunoprecipitated from co-transfected COS cells (transfected with IL-1α and the Na/K ATPase α1 subunit) using anti-α1 subunit antibody (FIG. 4).

[7] = tested on: VSV N protein export from COS cells; type: cell-based
[8] = tested on: export of FPT (FGF-2 neomycin phosphotransferase chimeric protein) from COS cells; assay: Export of FPT chimera from COS cells; type: cell-based
[9] = tested on: export of F-gal (FGF-2 β-gal chimeric protein) from COS cells; assay: Export of F-gal chimera from COS cells; type: cell-based
[10] = tested on: export of FGF-2 mutein Arg118Ile from COS cells; assay: FGF-2 mutein export with ouabain, Arg118Ile; type: cell-based
[11] = tested on: export of FGF-2 mutein Lys144Val (K144V) from COS cells; assay: FGF-2 mutein export with ouabain, Lys144Val; type: cell-based
[12] = tested on: export of FGF-2 mutein Arg53Trp (R53W) from COS cells; assay: FGF-2 mutein export with ouabain, Arg53Trp; type: cell-based
[13] = tested on: export of FGF-2 mutein Lys134Thr (K134T) from COS cells; assay: FGF-2 mutein export with ouabain, Lys134Thr; type: cell-based
[14] = tested on: export of FGF-2 mutein Cys78Ser + Cys96Ser (C78,96S) from COS cells; assay: FGF-2 mutein export with ouabain, Cys78Ser + Cys96Ser; type: cell-based

## C[C@H]1CCC/C=C/[C@@H]2C[C@H](O)C[C@H]2[C@H](O)/C=C/C(=O)O1 [Brefeldin A]
[1]
  effect on FGF-2 export: no substantial effect
[2]
  sensitivity of hCG-α secretion: brefeldin sensitive

## C[C@@H]1O[C@@H](O[C@H]2C[C@@H](O)[C@]3(CO)[C@H]4[C@H](O)C[C@]5(C)[C@@H](C6=CC(=O)OC6)CC[C@]5(O)[C@@H]4CC[C@]3(O)C2)[C@H](O)[C@H](O)[C@H]1O [Ouabain]
[3]; 1 mM, FGF-2 only transfected COS cells
  inhibition of FGF-2 export at 1 mM: completely inhibit
[3]
  inhibition of export of FGF-2: inhibit
  IC50: ~100 nM
[4]
  effect on secretion of hCG-α: does not affect secretion of hCG-α
[5]
  FGF-2 in media at 1 mM: significant amounts of FGF-2 can be detected in media
[6]
  inhibition of IL-1α export: inhibted
[7]
  sensitivity of N protein export: ouabain-resistant
[8]
  inhibition of export of FPT: can be inhibited
[9]
  inhibition of export of F-gal: can be inhibited
[10]
  Effect of Ouabain on Export: decrease
  FGF-2 in Cells, 7 hr (+) Ouabain: 79%
  FGF-2 in Media, 7 hr (+) Ouabain: 21%
[11]; K144V
  FGF-2 in Cells, 7 hr (+) Ouabain: 70%
  FGF-2 in Media, 7 hr (+) Ouabain: 30%
[11]; Lys144Val
  Effect of Ouabain on Export: decrease
[12]; Arg53Trp
  Effect of Ouabain on Export: decrease
[12]; R53W
  FGF-2 in Cells, 7 hr (+) Ouabain: 70%
  FGF-2 in Media, 7 hr (+) Ouabain: 30%
[13]
  FGF-2 in Cells, 7 hr (+) Ouabain: 70%
  FGF-2 in Media, 7 hr (+) Ouabain: 30%
[14]; C78,96S
  FGF-2 in Cells, 7 hr (+) Ouabain: 62%
  FGF-2 in Media, 7 hr (+) Ouabain: 38%
[14]; Cys78Ser + Cys96Ser
  Effect of Ouabain on Export: decrease

## C[C@H]1O[C@@H](O[C@H]2[C@@H](O)C[C@H](O[C@H]3[C@@H](O)C[C@H](O[C@H]4CC[C@@]5(C)[C@H](CC[C@@H]6[C@@H]5C[C@@H](O)[C@]5(C)[C@@H](C7=CC(=O)OC7)CC[C@]65O)C4)O[C@@H]3C)O[C@@H]2C)C[C@H](O)[C@@H]1O [digoxin]
[3]
  inhibition of export of FGF-2: inhibit
  IC50: ~5000 nM
